How the values were obtained:
[1] = Observed inhibition activity of the compounds against protein phosphatases 1 (PP1)
[2] = Observed inhibition activity against protein phosphatase 1 (PP1)
[3] = Inhibition activity against protein phosphatase 1 (PP1), activity taken from literature

`CO[C@H]([C@H](O)CC(=O)[C@@H](C)[C@@H](O)CC[C@@H](C)[C@@H]1O[C@]2(CC[C@@H](C)[C@H](CC[C@H](C)C(C)=O)O2)CC[C@@H]1C)[C@H](OC(=O)C[C@@H](O)C1=C(C)C(=O)OC1=O)C(C)C` [TAUTOMYCIN] showed an IC50 [1] of 0.67 nM.
For `COC[C@@H]([C@H](O)[C@H](O)C(=O)N[C@H](C)C[C@H](C)c1nc(/C=C/CC2O[C@]3(CC(O)C2C)OC([C@H](C[C@H](O)[C@H](C)[C@H](O)[C@H](C)/C=C(C)/C(C)=C/C=C/C(C)=C\C#N)OC)[C@H](OP(=O)(O)O)C3(C)C)co1)N(C)C` (some centres undefined) [Calyculin C], the IC50 [1] was 1.5 nM.
Compound `C/C=C1/C(=O)N[C@@H](C(=O)O)[C@H](C)C(=O)N[C@@H](CCCNC(=N)N)C(=O)N[C@@H](/C=C/C(C)=C/[C@H](C)[C@H](Cc2ccccc2)OC)[C@H](C)C(=O)N[C@@H](C(=O)O)CCC(=O)N1C` [(5R,6S,9S,12S,13S,16R)-2-Eth-(Z)-ylidene-9-(3-guanidino-propyl)-12-((1E,3E)-(5S,6S)-6-methoxy-3,5-dimethyl-7-phenyl-hepta-1,3-dienyl)-1,6,13-trimethyl-3,7,10,14,19-pentaoxo-1,4,8,11,15pentaaza-cyclononadecane-5,16-dicarboxylic acid] has an IC50 [2] of 0.42 nM and an IC50 [3] of 3 nM.
